Measurements taken from article PMC11845477, “Exploring the principles behind antibiotics with limited resistance” (Nature Communications, 2025).
Read-outs that look alike come from different tables or passages of the source.

What was measured:
[1] = system: E. coli ATCC 25922 (SEN) and E. coli NCTC13846 (MDR); experiment: Adaptive laboratory evolution (ALE), relative MIC of evolved lines; assay type: cell-based, Escherichia coli
Procedure, shortened: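 Ten parallel populations per antibiotic–ancestor pair were evolved in MHB at 37 °C, starting near 50% growth-inhibiting drug. Every 72 h they were passaged into 0.5–2.5× increasing concentrations, keeping the highest-drug well with OD600 > 0.2.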

[2] = system: A. baumannii ATCC 17978 (SEN) and A. baumannii ATCC BAA-1605 (MDR); experiment: Frequency-of-resistance (FoR) assay, relative MIC of mutants; assay type: cell-based, Acinetobacter baumannii; conditions: for Relative MIC: Acinetobacter baumannii ATCC 17978 (AB-SEN); for MIC: Acinetobacter baumannii, read-out: MIC of evolved line, Acinetobacter baumannii ATCC 17978 (AB-SEN)
Procedure, shortened: (§1)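 Relative MIC is mutant MIC divided by ancestor MIC. Mutants: ten colonies from the highest-concentration plate after ~10^10 MHB-grown cells spent 48 h at 37 °C on antibiotic agar (triplicates, susceptible-range concentrations).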

[3] = system: K. pneumoniae ATCC 10031 (SEN) and K. pneumoniae ATCC 700603 (MDR); experiment: as above; assay type: cell-based, Klebsiella pneumoniae; conditions: for Relative MIC: Klebsiella pneumoniae ATCC 10031 (KP-SEN); for MIC: Klebsiella pneumoniae, read-out: MIC of evolved line, Klebsiella pneumoniae ATCC 10031 (KP-SEN)
Procedure, shortened: as §1

Question: Which “Relative MIC (log10)” value ([1]; EC-MDR (Escherichia coli NCTC 13846), evolved line 3 adapted to the named antibiotic) does the source give for CNC(C)C1CCC(N)C(OC2C(N)CC(N)C(OC3OCC(C)(O)C(NC)C3O)C2O)O1 (stereo not shown) [Gentamicin] here?
Answer: Its value is 1.806.

Question: What about the “Relative MIC (log10)” value ([1]; EC-MDR (Escherichia coli NCTC 13846), evolved line 5 adapted to the named antibiotic) of the same compound?
Answer: The value was 1.806.

Question: What about the “Relative MIC (log10)” value ([1]; EC-MDR (Escherichia coli NCTC 13846), evolved line 6 adapted to the named antibiotic) of the same compound?
Answer: Its value is 1.806.

Question: And the “Relative MIC (log10)” value ([1]; EC-MDR (Escherichia coli NCTC 13846), evolved line 7 adapted to the named antibiotic)?
Answer: Its value is 1.505.

Question: What about the “Relative MIC (log10)” value ([1]; EC-MDR (Escherichia coli NCTC 13846), evolved line 9 adapted to the named antibiotic) of the same compound?
Answer: The value was 1.806.

Question: What about the “Relative MIC” value ([1]; EC-MDR, Escherichia coli NCTC 13846, evolved line 1 versus ancestor) of the same compound?
Answer: Its value is 64.

Question: And the “Relative MIC” value ([1]; EC-MDR, Escherichia coli NCTC 13846, evolved line 2 versus ancestor)?
Answer: The value was 32.

Question: And the “Relative MIC” value ([1]; EC-MDR, Escherichia coli NCTC 13846, evolved line 3 versus ancestor)?
Answer: The value was 64.

Question: And the “Relative MIC” value ([1]; EC-MDR, Escherichia coli NCTC 13846, evolved line 4 versus ancestor)?
Answer: Its value is 64.

Question: And the “Relative MIC” value ([1]; EC-MDR, Escherichia coli NCTC 13846, evolved line 5 versus ancestor)?
Answer: The value was 64.

Question: What about the “Relative MIC” value ([1]; EC-MDR, Escherichia coli NCTC 13846, evolved line 6 versus ancestor) of the same compound?
Answer: Its value is 64.

Question: What about the “Relative MIC” value ([1]; EC-MDR, Escherichia coli NCTC 13846, evolved line 7 versus ancestor) of the same compound?
Answer: The value was 32.

Question: What about the “Relative MIC” value ([1]; EC-MDR, Escherichia coli NCTC 13846, evolved line 8 versus ancestor) of the same compound?
Answer: The value was 64.

Question: What about the “Relative MIC” value ([1]; EC-MDR, Escherichia coli NCTC 13846, evolved line 9 versus ancestor) of the same compound?
Answer: Its value is 64.

Question: What about the “Relative MIC (log10)” value ([1]; EC-SEN (Escherichia coli ATCC 25922), evolved line 2 adapted to the named antibiotic) of the same compound?
Answer: Its value is 1.505.

Question: What about the “Relative MIC (log10)” value ([1]; EC-SEN (Escherichia coli ATCC 25922), evolved line 4 adapted to the named antibiotic) of the same compound?
Answer: Its value is 2.107.

Question: And the “Relative MIC (log10)” value ([1]; EC-SEN (Escherichia coli ATCC 25922), evolved line 5 adapted to the named antibiotic)?
Answer: The value was 1.806.

Question: What about the “Relative MIC (log10)” value ([1]; EC-SEN (Escherichia coli ATCC 25922), evolved line 6 adapted to the named antibiotic) of the same compound?
Answer: The value was 2.107.

Question: And the “Relative MIC (log10)” value ([1]; EC-SEN (Escherichia coli ATCC 25922), evolved line 9 adapted to the named antibiotic)?
Answer: Its value is 1.806.

Question: And the “Relative MIC” value ([1]; EC-SEN, Escherichia coli ATCC 25922, evolved line 2 versus ancestor)?
Answer: The value was 32.

Question: And the “Relative MIC” value ([1]; EC-SEN, Escherichia coli ATCC 25922, evolved line 3 versus ancestor)?
Answer: The value was 32.

Question: And the “Relative MIC” value ([1]; EC-SEN, Escherichia coli ATCC 25922, evolved line 4 versus ancestor)?
Answer: Its value is 128.

Question: And the “Relative MIC” value ([1]; EC-SEN, Escherichia coli ATCC 25922, evolved line 5 versus ancestor)?
Answer: The value was 64.

Question: And the “Relative MIC” value ([1]; EC-SEN, Escherichia coli ATCC 25922, evolved line 6 versus ancestor)?
Answer: The value was 128.

Question: What about the “Relative MIC” value ([1]; EC-SEN, Escherichia coli ATCC 25922, evolved line 7 versus ancestor) of the same compound?
Answer: Its value is 32.

Question: What about the “Relative MIC” value ([1]; EC-SEN, Escherichia coli ATCC 25922, evolved line 8 versus ancestor) of the same compound?
Answer: The value was 64.

Question: What about the “Relative MIC” value ([1]; EC-SEN, Escherichia coli ATCC 25922, evolved line 9 versus ancestor) of the same compound?
Answer: Its value is 64.

Question: And the “Relative MIC” value ([1]; EC-SEN, Escherichia coli ATCC 25922, evolved line 10 versus ancestor)?
Answer: The value was 16.

Question: What about the “Relative MIC” value ([1]; Escherichia coli ATCC 25922 (EC-SEN), evolved line 2) of the same compound?
Answer: Its value is 32.

Question: And the “Relative MIC” value ([1]; Escherichia coli ATCC 25922 (EC-SEN), evolved line 3)?
Answer: Its value is 32.

Question: What about the “Relative MIC” value ([1]; Escherichia coli ATCC 25922 (EC-SEN), evolved line 4) of the same compound?
Answer: Its value is 128.

Question: What about the “Relative MIC” value ([1]; Escherichia coli ATCC 25922 (EC-SEN), evolved line 5) of the same compound?
Answer: The value was 64.

Question: What about the “Relative MIC” value ([1]; Escherichia coli ATCC 25922 (EC-SEN), evolved line 6) of the same compound?
Answer: Its value is 128.

Question: What about the “Relative MIC” value ([1]; Escherichia coli ATCC 25922 (EC-SEN), evolved line 7) of the same compound?
Answer: The value was 32.

Question: And the “Relative MIC” value ([1]; Escherichia coli ATCC 25922 (EC-SEN), evolved line 8)?
Answer: The value was 64.

Question: What about the “Relative MIC” value ([1]; Escherichia coli ATCC 25922 (EC-SEN), evolved line 9) of the same compound?
Answer: The value was 64.

Question: And the “Relative MIC” value ([1]; Escherichia coli ATCC 25922 (EC-SEN), evolved line 10)?
Answer: The value was 16.

Question: What about the “Relative MIC” value ([1]; Escherichia coli NCTC 13846 (EC-MDR), evolved line 1) of the same compound?
Answer: Its value is 64.

Question: What about the “Relative MIC” value ([1]; Escherichia coli NCTC 13846 (EC-MDR), evolved line 2) of the same compound?
Answer: Its value is 32.

Question: And the “Relative MIC” value ([1]; Escherichia coli NCTC 13846 (EC-MDR), evolved line 3)?
Answer: The value was 64.

Question: And the “Relative MIC” value ([1]; Escherichia coli NCTC 13846 (EC-MDR), evolved line 4)?
Answer: The value was 64.

Question: And the “Relative MIC” value ([1]; Escherichia coli NCTC 13846 (EC-MDR), evolved line 5)?
Answer: Its value is 64.

Question: And the “Relative MIC” value ([1]; Escherichia coli NCTC 13846 (EC-MDR), evolved line 6)?
Answer: The value was 64.

Question: And the “Relative MIC” value ([1]; Escherichia coli NCTC 13846 (EC-MDR), evolved line 7)?
Answer: The value was 32.

Question: What about the “Relative MIC” value ([1]; Escherichia coli NCTC 13846 (EC-MDR), evolved line 8) of the same compound?
Answer: The value was 64.

Question: What about the “Relative MIC” value ([1]; Escherichia coli NCTC 13846 (EC-MDR), evolved line 9) of the same compound?
Answer: Its value is 64.

Question: What about the “Relative MIC” value ([2]; evolved line 1 versus ancestor) of the same compound?
Answer: The value was 32.

Question: What about the “Relative MIC” value ([2]; evolved line 2 versus ancestor) of the same compound?
Answer: Its value is 16.

Question: What about the “Relative MIC” value ([2]; evolved line 3 versus ancestor) of the same compound?
Answer: Its value is 64.

Question: And the MIC ([2]; evolved line 1)?
Answer: The MIC was 16 µg/mL.

Question: What about the MIC ([2]; evolved line 2) of the same compound?
Answer: Its MIC is 8 µg/mL.

Question: What about the MIC ([2]; evolved line 3) of the same compound?
Answer: Its MIC is 32 µg/mL.

Question: What about the “Relative MIC” value ([3]; evolved line 1 versus ancestor) of the same compound?
Answer: Its value is 2.

Question: What about the “Relative MIC” value ([3]; evolved line 2 versus ancestor) of the same compound?
Answer: The value was 2.

Question: What about the “Relative MIC” value ([3]; evolved line 3 versus ancestor) of the same compound?
Answer: Its value is 32.

Question: And the MIC ([3]; evolved line 1)?
Answer: Its MIC is 0.5 µg/mL.

Question: What about the MIC ([3]; evolved line 2) of the same compound?
Answer: The MIC was 0.5 µg/mL.

Question: And the MIC ([3]; evolved line 3)?
Answer: The MIC was 8 µg/mL.
